Experimental data taken from patent publication US20040171566A1, “Antisense modulation of p38 mitogen activated protein kinase expression” (priority 1999, published 2004).
e = 2'-O-(2-methoxyethyl) (MOE); d = 2'-deoxy (DNA)

Assays:
Type in all cases: cell-based
human p38β mRNA = assay: Inhibition of human p38β mRNA expression in HUVEC cells, Northern blot
Description: The human Jurkat T-cell line (American Type Culture Collection, Manassas, Va.) was maintained in RPMI 1640 growth media supplemented with 10% fetal bovine serum (FBS; Hyclone, Logan, Utah). HUVEC cells (Clonetics, San Diego, Calif.) were cultivated in endothelial basal media supplemented with 10% FBS (Hyclone, Logan, Utah).
HUVEC cells were allowed to reach 75% confluency prior to use. The cells were washed twice with warm (37° C.) OPTI-MEM™ (Life Technologies). The cells were incubated in the presence of the appropriate culture medium, without the growth factors added, and the oligonucleotide formulated in LIPOFECTIN7 (Life Technologies), a 1:1 (w/w) liposome formulation of the cationic lipid N-[1-(2,3-dioleyloxy)propyl]-n,n,n-trimethylammonium chloride (DOTMA), and dioleoyl phosphotidylethanolamine (DOPE) in membrane filtered water. HUVEC cells were treated with 100 nM oligonucleotide in 10 μg/ml LIPOFECTIN7. Treatment was for four hours.
Total mRNA was isolated using the RNEASY7 Mini Kit (Qiagen, Valencia, Calif.; similar kits from other manufacturers may also be used), separated on a 1% agarose gel, transferred to HYBOND™-N+ membrane (Amersham Pharmacia Biotech, Piscataway, N.J.), a positively charged nylon membrane, and probed. p38 MAPK probes were made using the Prime-A-Gene7 kit (Promega Corporation, Madison, Wis.), a random primer labeling kit, using mouse p38α or p38β cDNA as a template. A glyceraldehyde 3-phosphate dehydrogenase (G3PDH) probe was purchased from Clontech (Palo Alto, Calif.), Catalog Number 9805-1. The fragments were purified from low-melting temperature agarose, as described in Maniatis, T., et al., Molecular Cloning: A Laboratory Manual, 1989. The G3PDH probe was labeled with REDIVUE™ ^32P-dCTP (Amersham Pharmacia Biotech, Piscataway, N.J.) and Strip-EZ labelling kit (Ambion, Austin, Tex.). mRNA was quantitated by a PhosphoImager (Molecular Dynamics, Sunnyvale, Calif.).
Every oligonucleotide tested gave at least 50% inhibition.
Oligonucleotides 17893 (SEQ ID NO. 27), 17899 (SEQ ID NO:33), 17904 (SEQ ID NO. 38), and 17907 (SEQ ID NO. 41) were chosen for dose response studies. HUVEC cells were cultured and treated as described in Example 2 except that the oligonucleotide concentration was varied as shown in Table 6. The Lipofectin7/Oligo ratio was maintained at 3 μg Lipofectin7/100 nM oligo, per ml. mRNA was measured by Northern blot as described in Example 2.

rat p38α mRNA = assay: Rat p38α mRNA levels in NR-8383 cells, quantitative real-time PCR; conditions: 300 nM oligonucleotide with FuGENE 6, 24 hours, mRNA by quantitative real-time PCR, average of two experiments
mouse p38α mRNA = assay: Mouse p38α mRNA levels in bEND.3 cells, quantitative real-time PCR; set-up: % Inhib. mouse p38α: concentration or dose not given beside the values; conditions: bEND.3 cells, mRNA by quantitative real-time PCR, average of two experiments
How it was run: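 Mouse bEND.3 cells, antisense oligonucleotide-treated; p38α mRNA measured by one-step real-time RT-PCR (RT 30 min at 48 °C, then 40 cycles) with a FAM/TAMRA probe. Levels normalized to GAPDH or RiboGreen total RNA, and percent inhibition derived from standard curves of untreated-control mRNA.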

[1] = 100 nM oligonucleotide in 10 μg/ml LIPOFECTIN, four hours, Northern blot

Substance | % mRNA EXPRESSION (human p38β mRNA; [1]) [%] | % mRNA Inhibition (human p38β mRNA; [1]) [%] | % Inhib. rat p38α (rat p38α mRNA) [%] | % Inhib. mouse p38α (mouse p38α mRNA) [%] | further results
ACTGTTTGGTTGTAATGCAT (antisense; chemistry not fully specified) [ISIS 17900] | 40 | 60 | – | – | –
CTTGCCAGATATGGCTGCTG (chemistry not fully specified) [ISIS 17910] | 26 | 74 | – | – | –
GCCAGTGCCTCAGGTGCACT [ISIS 17902] | 49 | 51 | – | – | –
AACGCTCTCATCATATGGCT (chemistry not fully specified) [ISIS 17903] | 11 | 89 | – | – | –
TTCAGCTCCTGCCGGTAGAA (chemistry not fully specified) [ISIS 17892] | 10 | 90 | – | – | –
TCCAGGCTGAGCAGCTCTAA (chemistry not fully specified) [ISIS 17908] | 17 | 83 | – | – | –
AACGTGCTCGTCAAGTGCCA (chemistry not fully specified) [ISIS 17898] | 49 | 51 | – | – | –
CCTACACATGGCAAGCACAT (chemistry not fully specified) [ISIS 17907] | 8 | 92 | – | – | % mRNA EXPRESSION (human p38β mRNA; dose 10 nM): 37%; % mRNA Inhibition (human p38β mRNA; dose 10 nM): 63%; % mRNA EXPRESSION (human p38β mRNA; dose 25 nM): 22%; % mRNA Inhibition (human p38β mRNA; dose 25 nM): 78%; % mRNA EXPRESSION (human p38β mRNA; dose 50 nM): 18%; % mRNA Inhibition (human p38β mRNA; dose 50 nM): 72%; % mRNA EXPRESSION (human p38β mRNA; dose 100 nM): 18%; % mRNA Inhibition (human p38β mRNA; dose 100 nM): 72%
TCTGTGACCATAGGAGTGTG (antisense; chemistry not fully specified) [ISIS 17905] | 14 | 86 | – | – | –
GTGCTTCAGGTGCTTGAGCA (chemistry not fully specified) [ISIS 17895] | 25 | 75 | – | – | –
AGTGCACGCTCATCCACACG (chemistry not fully specified) [ISIS 17909] | 13 | 87 | – | – | –
CGACATGTCCGGAGCAGAAT (chemistry not fully specified) [ISIS 17891] | 22 | 78 | – | – | –
ACACATGTTTGTGCATGCAT (antisense; chemistry not fully specified) [ISIS 17906] | 22 | 78 | – | – | –
320127 (antisense TGAGCAAAGTAGGCATGCGC; sugars from the 5' end e5 d10 e5, all phosphorothioate, methylation of C not given here) [compound 320127] | – | – | 56 | 73 | –
320130 (antisense AGGACTCCATTTCTTCTTGG; sugars from the 5' end e5 d10 e5, all phosphorothioate, methylation of C not given here) [compound 320130] | – | – | 61 | 81 | –
320167 (antisense CTTGCCTGTAAAAACACAGA; sugars from the 5' end e5 d10 e5, all phosphorothioate, methylation of C not given here) [compound 320167] | – | – | 11 | 7 | –
ATGATGCGCTTCAGCTGGTC (chemistry not fully specified) [ISIS 17901] | 15 | 85 | – | – | –
ACTTGACGATGTTGTTCAGG (antisense; chemistry not fully specified) [ISIS 17897] | 25 | 75 | – | – | –
GCGTGAAGACGTCCAGAAGC (chemistry not fully specified) [ISIS 17896] | 24 | 76 | – | – | –
320115 (antisense GGGTTCCAACGAGTCTTAAA; sugars from the 5' end e5 d10 e5, all phosphorothioate, methylation of C not given here) [compound 320115] | – | – | 53 | 67 | –
320134 (antisense AACAAGAGGCACTTGAATGG; sugars from the 5' end e5 d10 e5, all phosphorothioate, methylation of C not given here) [compound 320134] | – | – | 74 | 85 | –
320148 (antisense CCAGGGCTTCCAGAAGACAG; sugars from the 5' end e5 d10 e5, all phosphorothioate, methylation of C not given here) [compound 320148] | – | – | 33 | 78 | –
320163 (antisense TGTTAATGAGATAAGCAGGG; sugars from the 5' end e5 d10 e5, all phosphorothioate, methylation of C not given here) [compound 320163] | – | – | 40 | 0 | –
CCGAACAGACGGAGCCGTAT (chemistry not fully specified) [ISIS 17894] | 13 | 87 | – | – | –
320104 (antisense TCAAAAGCAGCACACACCGA; sugars from the 5' end e5 d10 e5, all phosphorothioate, methylation of C not given here) [compound 320104] | – | – | 42 | 82 | –
320107 (antisense TAGGTCCTTTTGGCGTGAAT; sugars from the 5' end e5 d10 e5, all phosphorothioate, methylation of C not given here) [compound 320107] | – | – | 60 | 84 | –
320129 (antisense CATTTCTTCTTGGTCAAGGG; sugars from the 5' end e5 d10 e5, all phosphorothioate, methylation of C not given here) [compound 320129] | – | – | 65 | 69 | –
320151 (antisense GAAGGAACCACACTCTCTAA; sugars from the 5' end e5 d10 e5, all phosphorothioate, methylation of C not given here) [compound 320151] | – | – | 47 | 90 | –
